{"source": "patent US20140350119A1", "about": "“OPHTHALMIC COMPOSITION COMPRISING GERANYLGERANYLACETONE” (ROHTO PHARMACEUTICAL CO., LTD., priority 2012, published 2014)", "key": {"[1]": {"system": "rat-derived retinal ganglion cells (RGC)", "assay": "Neurite outgrowth inducing effect in culture system of rat-derived retinal ganglion cells", "assay_type": "cell-based, Wistar rats", "details": "all-trans form content 3 μM; 48 hours; FIG. 2, FIG. 3; n=4", "source_text": "The progress of visual impairment in glaucoma is associated with retinal ganglion cell (RGC) death due to blood flow failure occurring near the optic nerve (Folia Pharmacol. Jpn. 128, 255-258 (2006)). Accordingly, a culture system of rat-derived retinal neurons (Current protocols in Neuroscience 3.22.1-3.22.10, October 2010), which is widely used as one of study tools for optic nerve diseases such as a glaucoma, was used to examine the neurite outgrowth inducing effect of GGA.\nFour-day-old Wistar rats (Japan SLC, Inc.) were euthanized by cervical dislocation and the eyeballs were harvested. The harvested eyeballs were immersed in 70% ethanol for 10 seconds and transferred to a Hanks' balanced salt solution containing 100 U/mL penicillin and 100 μg/mL streptomycin. Under a stereoscopic microscope, the corneas, irises, crystalline lenses, and vitreous bodies were removed using scissors for surgery and forceps, and the retinal tissue was harvested. The harvested retinal tissue was transferred to a centrifugation tube containing 5 mL of a basal medium for neuronal cells (Neurobasal, Invitrogen) containing 100 U/mL penicillin, 100 μg/mL streptomycin, a neural cell culture supplement (B27™-Supplement, Invitrogen), 1 μM L-cysteine (Kyowa Hakko Bio) and 15 U/mL papain (Sigma Aldrich) and incubated at 37° C. for 30 minutes. […]"}, "ARPE-19": {"system": "ARPE-19", "assay": "Protective effect for retinal pigment epithelial cells against oxidative stress by hydrogen peroxide", "assay_type": "cell-based, human", "details": "all-trans form content 280 μM, 14 hours, then 750 μM hydrogen peroxide 2 hours, FIG. 4, n=3", "source_text": "The involvement of oxidative stress in ophthalmologic diseases has been widely reported. Such involvement has been observed in, in addition to glaucoma and cataract, retinal diseases such as retinal diseases due to diabetes, hypertension, hyperlipemia, etc., age-related macular degeneration, retinopathy of prematurity, retinal vascular occlusion, retinal light damage, etc. (Nippon Ganka Gakkai Zasshi. 112, 22-29 (2008)). In the retina, the retinal pigment epithelium exists in an environment in which reactive oxygen easily generates (Invest Opthalmol Vis Sci. 2006 July 47(7): 3164-3177.). […]\nAfter 2 hours of incubation, the cell culture supernatant was removed, and 200 μL of PBS was added to each well and promptly removed. Then, 100 μL of an equivalent mixture of a cell viability detection reagent Cell Titer-Glo (Promega) and PBS was added to each well and the luminescence produced by the reaction with ATP in living cells was measured with a luminometer (GloMax; Promega). The cell viability was calculated from the measured luminescence by the following formula and the cytoprotective effect of GGA against oxidative stress by hydrogen peroxide was examined.\nCell viability (%)=100×[(luminescence of base- or GGA-treated group)/(luminescence of non-treated group)]"}}, "data": [{"smiles": "CC(=O)CC/C=C(\\C)CC/C=C(\\C)CC/C=C(\\C)CCC=C(C)C", "note": "[all-trans form, (5E,9E,13E)-6,10,14,18-tetramethyl-5,9,13,17-nonadecatetrae n-2-one]", "values": [{"measurement": "Neurite inducing effect (mean length of neurites of RGC) compared with GGA 6:4 and base", "setting": "[1]", "value": "significant neurite inducing effect"}, {"measurement": "Cell viability compared with base-treated group", "setting": "ARPE-19", "value": "significantly higher cell viabilities"}]}]}
